Reference: patent publication US7320984B2, “Remedies or preventives for urinary frequency or urinary incontinence and morphinan derivatives having nitrogen-containing heterocyclic group” (Toray Industries, Inc., priority 2002, dated 2008)

Tested on: rhythmic bladder contractions in rats
Experiment: Inhibitory effect against rhythmic bladder contractions in rats
Assay type: in vivo
Conditions: anesthetized female SD rats, intravenous
In short: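 Urethane-anesthetized (1.0 g/kg i.p.) female SD rats; saline infused into bladder to induce rhythmic contractions, intravesical pressure monitored. Compound given i.v. at 1 ml/kg in saline, 10% or 20% aqueous DMSO, or 5% aqueous xylitol. Inhibitory time = period intravesical pressure stayed ≤50% of post-dose level (onset within 10 min); vehicles tested alone.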

O=S1(=O)c2ccccc2CN1[C@@H]1CC[C@@]2(O)[C@H]3Cc4ccc(O)c5c4[C@@]2(CCN3CC2CC2)[C@H]1O5 [Compound 110, N-(17-cyclopropylmethyl-4,5α-epoxy-3,14-dihydroxy-morphinan-6β-yl)-2,3-dihydro-benzo[d]isothiazol-1,1-dioxide]
Mean Inhibitory Time of Rhythmic Bladder Contractions (dose 0.1 mg/kg body weight): 12.6 min

CC1=C(C)C(=O)N([C@@H]2CC[C@@]3(O)[C@H]4Cc5ccc(O)c6c5[C@@]3(CCN4CC3CC3)[C@H]2O6)C1=O [Compound 75, N-(17-cyclopropylmethyl-4,5α-epoxy-3,14-dihydroxy-morphinan-6β-yl)-2,3-dimethyl-maleimide]
Mean Inhibitory Time of Rhythmic Bladder Contractions (dose 0.1 mg/kg body weight): 20.2 min

CN1CC[C@]23c4c5ccc(O)c4O[C@H]2[C@H](N2CCOCc4ccccc42)CC[C@H]3[C@H]1C5 [Compound 10, 4,5α-epoxy-6β-(1,2,3,5-tetrahydro-benzo[e][1,4]oxazepino)-17-methyl-morphinan-3-ol]
Mean Inhibitory Time of Rhythmic Bladder Contractions (dose 0.3 mg/kg body weight): 7.8 min

O=C1Cc2ccccc2C(=O)N1[C@@H]1CC[C@@]2(O)[C@H]3Cc4ccc(O)c5c4[C@@]2(CCN3CC2CC2)[C@H]1O5 [Compound 106, 2-(17-cyclopropylmethyl-4,5α-epoxy-3,14-dihydroxy-morphinan-6β-yl)-4H-isoquinolin-1,3-dione]
Mean Inhibitory Time of Rhythmic Bladder Contractions (dose 0.01 mg/kg body weight): 12.9 min

O=C1c2ccccc2C(=O)N1[C@@H]1CC[C@@]2(O)[C@H]3Cc4ccc(O)c5c4[C@@]2(CCN3CC2CC2)[C@H]1O5 [Compound 11, N-(17-cyclopropylmethyl-4,5α-epoxy-3,14-dihydroxy-morphinan-6β-yl)-phthalimide]
Mean Inhibitory Time of Rhythmic Bladder Contractions (dose 0.005 mg/kg body weight): 15.5 min

C=CCN1CC[C@]23c4c5ccc(O)c4O[C@H]2[C@@H](N2CC4=C(CCCC4)C2=O)CC[C@@]3(O)[C@H]1C5 [Compound 85, 2-(17-allyl-4,5α-epoxy-3,14-dihydroxy-morphinan-6α-yl)-2,3,4,5,6,7-hexahydro-isoindol-1-one]
Mean Inhibitory Time of Rhythmic Bladder Contractions (dose 0.1 mg/kg body weight): 6.9 min

O=C1C2=C(CCCC2)C(=O)N1C1CC[C@@]2(O)[C@H]3Cc4ccc(O)c5c4[C@@]2(CCN3CC2CC2)[C@H]1O5 (stereo in doubt) [Compound 72, N-(17-cyclopropylmethyl-4,5α-epoxy-3,14-dihydroxymorphinan-6α-yl)-3,4,5,6-tetrahydrophthalimide]
Mean Inhibitory Time of Rhythmic Bladder Contractions (dose 0.003 mg/kg body weight): 26.7 min

O=C1c2ccccc2CN1[C@@H]1CC[C@@]2(O)[C@H]3Cc4ccc(O)c5c4[C@@]2(CCN3CC2CC2)[C@H]1O5 [Compound 28, 2-(17-cyclopropylmethyl-4,5α-epoxy-3,14-dihydroxy-morphinan-6β-yl)-2,3-dihydro-isoisoindol-1-one]
Mean Inhibitory Time of Rhythmic Bladder Contractions (dose 0.3 mg/kg body weight): 19.6 min

O=C1c2ccccc2C(=O)N1[C@@H]1CC[C@@]2(O)[C@H]3Cc4ccc(O)c5c4[C@@]2(CCN3)[C@H]1O5 [Compound 14, N-(4,5α-epoxy-3,14-dihydroxy-morphinan-6β-yl)-phthalimide]
Mean Inhibitory Time of Rhythmic Bladder Contractions (dose 1.0 mg/kg body weight): 7.9 min

O=C1c2cccc(F)c2C(=O)N1[C@@H]1CC[C@@]2(O)[C@H]3Cc4ccc(O)c5c4[C@@]2(CCN3CC2CC2)[C@H]1O5 [Compound 17, N-(17-cyclopropylmethyl-4,5α-epoxy-3,14-dihydroxy-morphinan-6β-yl)-3-fluorophthalimide]
Mean Inhibitory Time of Rhythmic Bladder Contractions (dose 0.005 mg/kg body weight): 13.2 min

O=C1c2cccc(O)c2C(=O)N1[C@@H]1CC[C@@]2(O)[C@H]3Cc4ccc(O)c5c4[C@@]2(CCN3CC2CC2)[C@H]1O5 [Compound 96, N-(17-cyclopropylmethyl-4,5α-epoxy-3,14-dihydroxy-morphinan-6β-yl)-3-hydroxy-phthalimide]
Mean Inhibitory Time of Rhythmic Bladder Contractions (dose 0.1 mg/kg body weight): 12.9 min

CN1CC[C@]23c4c5ccc(O)c4O[C@H]2[C@H](N2CCOc4ccccc42)CC[C@H]3[C@H]1C5 [Compound 4, 4,5α-epoxy-6β-(3,4-dihydro-2H-benzo [1,4]oxazino)-17-methyl-morphinan-3-ol]
Mean Inhibitory Time of Rhythmic Bladder Contractions (dose 0.1 mg/kg body weight): 15.6 min

O=C1c2ccc(F)cc2C(=O)N1[C@H]1CC[C@@]2(O)[C@H]3Cc4ccc(O)c5c4[C@@]2(CCN3CC2CC2)[C@H]1O5 [Compound 68, N-(17-cyclopropylmethyl-4,5α-epoxy-3,14-dihydroxymorphinan-6α-yl)-4-fluorophthalimide]
Mean Inhibitory Time of Rhythmic Bladder Contractions (dose 0.001 mg/kg body weight): 18.0 min

O=C1c2cccnc2C(=O)N1[C@@H]1CC[C@@]2(O)[C@H]3Cc4ccc(O)c5c4[C@@]2(CCN3CC2CC2)[C@H]1O5 [Compound 80, N-(17-cyclopropylmethyl-4,5α-epoxy-3,14-dihydroxy-morphinan-6β-yl)-2,3-pyridinedicarboimide]
Mean Inhibitory Time of Rhythmic Bladder Contractions (dose 0.1 mg/kg body weight): 1.1 min

C=CCN1CC[C@]23c4c5ccc(O)c4O[C@H]2[C@H](N2C(=O)c4cccc(F)c4C2=O)CC[C@@]3(O)[C@H]1C5 [Compound 62, N-(17-allyl-4,5α-epoxy-3,14-dihydroxymorphinan-6β-yl)-3-fluorophthalimide]
Mean Inhibitory Time of Rhythmic Bladder Contractions (dose 0.01 mg/kg body weight): 15.3 min

CC(=O)O[C@@]12CC[C@@H](N3CC4=C(CCCC4)C3=O)[C@@H]3Oc4c(O)ccc5c4[C@@]31CCN(CC1CC1)[C@@H]2C5 [Compound 93, N-(14-acetoxy-17-cyclopropylmethyl-4,5α-epoxy-3-hydroxymorphinan-6β-yl)-2,3,4,5,6,7-hexahydro-isoindol-1-one]
Mean Inhibitory Time of Rhythmic Bladder Contractions (dose 0.1 mg/kg body weight): 16.0 min

CN1CC[C@]23c4c5ccc(O)c4O[C@H]2[C@H](N2CCSc4ccccc42)CC[C@H]3[C@H]1C5 [Compound 2, 4,5α-epoxy-6β-(3,4-dihydro-2H-benzo[1,4]thiazino)-17-methyl-morphinan-3-ol]
Mean Inhibitory Time of Rhythmic Bladder Contractions (dose 0.1 mg/kg body weight): 15.5 min

O=C1C2=C(CCCC2)C(=O)N1[C@@H]1CC[C@@]2(O)[C@H]3Cc4ccc(O)c5c4[C@@]2(CCN3CC2CC2)[C@H]1O5 [Compound 77, N-(17-cyclopropylmethyl-4,5α-epoxy-3,14-dihydroxy-morphinan-6β-yl)-3,4,5,6-tetrahydrophthalimide]
Mean Inhibitory Time of Rhythmic Bladder Contractions (dose 0.01 mg/kg body weight): 16.6 min

O=c1c2ccccc2[nH]c(=S)n1[C@@H]1CC[C@@]2(O)[C@H]3Cc4ccc(O)c5c4[C@@]2(CCN3CC2CC2)[C@H]1O5 [Compound 105, 3-(17-cyclopropylmethyl-4,5α-epoxy-3,14-dihydroxy-morphinan-6β-yl)-2-thioxo-2,3-dihydro-1H-quinazolin-4-one]
Mean Inhibitory Time of Rhythmic Bladder Contractions (dose 0.1 mg/kg body weight): 7.3 min

O=C1c2cccc(F)c2CN1[C@@H]1CC[C@@]2(O)[C@H]3Cc4ccc(O)c5c4[C@@]2(CCN3CC2CC2)[C@H]1O5 [Compound 81, 2-(17-cyclopropylmethyl-4,5α-epoxy-3,14-dihydroxy-morphinan-6β-yl)-4-fluoro-2,3-dihydro-isoindol-1-one]
Mean Inhibitory Time of Rhythmic Bladder Contractions (dose 0.03 mg/kg body weight): 16.1 min

O=C1[C@H]2C[C@H]2C(=O)N1[C@@H]1CC[C@@]2(O)[C@H]3Cc4ccc(O)c5c4[C@@]2(CCN3CC2CC2)[C@H]1O5 [Compound 79, N-(17-cyclopropylmethyl-4,5α-epoxy-3,14-dihydroxy-morphinan-6β-yl)-1,2-cyclopropanedicarboimide]
Mean Inhibitory Time of Rhythmic Bladder Contractions (dose 0.1 mg/kg body weight): 2.1 min
